Here are results for 5 substances from publication PMC10065799, “High-throughput profiling of sequence recognition by tyrosine kinases and SH2 domains using bacterial peptide display” (eLife, 2023).

Assay [1] deals with T1, c-Src kinase domain (Homo sapiens, UniProt P12931). The assay is described as follows: pTyr-Var library bacterial peptide display kinase screen (enrichment scores). To be noted: for Screen: sheet "Src", effect of the variant peptide relative to its reference peptide in the pTyr-Var library screen. In kind it is biochemical.
For a further assay, the target named is T2, c-Abl kinase domain (Mus musculus, UniProt P00520).
T2 sequence (P00520 242-493 limits assumed): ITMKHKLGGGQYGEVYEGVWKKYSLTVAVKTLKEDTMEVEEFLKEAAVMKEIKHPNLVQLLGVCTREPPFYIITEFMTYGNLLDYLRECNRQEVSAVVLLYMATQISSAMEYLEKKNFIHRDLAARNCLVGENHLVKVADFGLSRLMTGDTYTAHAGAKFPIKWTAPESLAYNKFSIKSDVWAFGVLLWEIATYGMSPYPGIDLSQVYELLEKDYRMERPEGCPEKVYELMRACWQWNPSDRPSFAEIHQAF
Described as above. In kind it is biochemical. The conditions noted are these: for Screen: fig5-data2, sheet "Abl", Screen for the variant/reference peptide pair.

The next assay deals with Fer kinase domain. The description is as above. The conditions noted are these: for Screen: sheet "Fer", value of the variant peptide against its reference peptide in the pTyr-Var library screen with Fer. It is filed as biochemical, mouse.
A further assay deals with EPHB1 kinase domain. The description is as above. It is filed as biochemical, human. The conditions noted are these: for Screen: sheet EPHB1, effect of the variant peptide relative to its reference peptide in the pTyr-Var library screen (enrichment scores).
A further assay relates to EPHB2 kinase domain. The description is as above. It is filed as biochemical, human. The conditions noted are these: for Screen: sheet EPHB2, effect of variant peptide relative to its reference peptide in the pTyr-Var library screen (enrichment scores).
The subject of a further assay is Fyn kinase domain. Described as above. It is filed as biochemical, human.
The test system of a further assay is Hck kinase domain. Described as above. In kind it is biochemical, human.
Another assay concerns Jak2. The assay is described as above. It is filed as biochemical, human.
The test system of the next assay is AncSZ kinase domain. The assay is described as above. It is filed as biochemical.
The next assay has as its system Fes. The assay is described as above. In kind it is biochemical.
The next assay concerns FGFR1 kinase domain. The assay is described as above. It is filed as biochemical, human.
For a further assay, the system named is FGFR3 kinase domain. Described as above. In kind it is biochemical, human.
A further assay relates to MERTK kinase domain. Described as above. In kind it is biochemical, human.
The target of the next assay is c-Src SH2 domain (Homo sapiens, UniProt P12931). As to the kind of experiment: pTyr-Var library SH2 domain screen with SH2-dynabeads (enrichment scores). To be noted: sheet c-Src.
For a further assay, the system named is SHP2 C-SH2 domain. The assay is described as above.
The subject of another assay is Grb2 SH2 domain. The assay is described as above.
Assay [2] deals with T1, c-Src kinase domain. As to the kind of experiment: ADP-Quest continuous fluorimetric kinase assay (Michaelis-Menten parameters and initial rates). In kind it is biochemical. To be noted: c-Src kinase domain 10 nM, 100 μM ATP, 37 °C, three to five replicates, error = standard error of global Michaelis-Menten fit. An excerpt:
A fluorescence-based assay from Eurofins (ADP Quest) was used to measure the Michaelis-Menten kinetic parameters for phosphorylation of the consensus peptides by purified tyrosine kinase domains. In this assay, ADP production as a result of kinase activity is coupled to the production of resorufin, a fluorophore that emits signal at 590 nm. For all experiments, the assay reactions were set up as described in the provided assay kit protocol, in a 384 well plate format. The peptide solutions were serially diluted in 100 mM Tris, pH 8.0, and the kinases were diluted to 50 nM in buffer (10 mM HEPES, 100 mM NaCl, 1 mM TCEP, 5 mM MgCl2, 10% (v/v) glycerol). The final reaction mixtures contained 10 nM of kinase with 100 μM of ATP. […] Phosphorylation reaction progress was monitored by measuring fluorescence at excitation 530 nm and emission 590 nm every 2 min at 37 °C on a plate reader (BioTek Synergy Neo 2). The fluorescence units (RFU) were converted to μM ADP by comparison to a standard curve, and the initial rates were extracted from the linear regime of the reaction progress curves. Initial rates were also measured for samples containing each kinase but lacking a peptide substrate, to account for background ATP hydrolysis. This background rate was subtracted from the rates measured in the presence of peptide. […]

Setting [3] is: mean of log2 of enrichment over R1-R4.
The mark [4] stands for this setting: pTyr-Var library, enrichment score, replicate 1.
Where [5] appears, read: pTyr-Var library, enrichment score, replicate 3.
Setting [6] is: pTyr-Var library, enrichment score, replicate 4.
The mark [7] stands for this setting: variant versus reference peptide.
The mark [8] stands for this setting: variant versus reference peptide, significant hit TRUE/FALSE.
Setting [9] is: mean of log2(variant) minus mean of log2(reference).
[10] abbreviates: mean of log2 enrichment of variant peptide, n = 5.
Setting [11] is: mean of log2 enrichment of variant peptide, n = 4.
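For AncSZ hit? in this document: Hit requires p below 0.05 and at least twofold variant vs reference change plus filters.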
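For Fyn hit? in this document: Hit requires p below 0.05 and at least twofold variant vs reference change plus filters.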
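For c-Abl hit? in this document: Hit requires p below 0.05 and at least twofold variant vs reference change plus filters.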
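For c-Src hit? in this document: Hit requires p below 0.05 and at least twofold variant vs reference change plus filters.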
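For screen in this document: log2 fold change in enrichment of variant over reference.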

As to FSMGCYEIFLG [HMGCL_Y198_S201Y_YF], the Screen was found to be 1.946 at c-Src kinase domain [1]; 0.9187 on c-Abl kinase domain (pTyr-Var library); 1.084 in the assay on Fer kinase domain; 0.9243 in the assay with EPHB1 kinase domain; 0.8942 in the assay with EPHB2 kinase domain.

For the substance SSSAIYDNPDL [DCP1B_Y191_N195D], the Screen on c-Src kinase domain [1] is listed as -1.087; at c-Abl kinase domain (pTyr-Var library) it was 1.925; in the assay on Fer kinase domain, -0.4908; with EPHB1 kinase domain it was -0.6114; with EPHB2 kinase domain, -0.486.

Regarding IKRIDYEFVEM [ADA_Y84_A83D], the Screen at c-Abl kinase domain (pTyr-Var library) is on record as 0.5744; in the assay on Fer kinase domain it was -0.7273; in the assay on EPHB1 kinase domain it was 3.957; in the assay on EPHB2 kinase domain, 2.863.

Regarding GMAHNYRNRSQ [AASS_Y188_S191R], the “c-Src mean of log2(enrichment)” value at c-Src kinase domain [1] (setting [3]) was -1.078. Also, the “c-Src enrich. R1” value at c-Src kinase domain [1] (setting [4]) is 0.5961. Further, at c-Src kinase domain [1] (setting [5]), the “c-Src enrich. R3” value stood at 0.5045. For the same substance, the “c-Src enrich. R4” value on c-Src kinase domain [1] (setting [6]) is recorded as 0.4581. Also, the “c-Src difference (mean log2 variant - mean log2 reference)” value on c-Src kinase domain [1] (setting [7]) worked out at 0.3253. Moreover, the “c-Src hit?” value on c-Src kinase domain [1] (setting [8]) is on record as “FALSE”. Further, the “Fyn mean of log2(enrichment)” value in the assay with Fyn kinase domain (setting [3]) is recorded as -1.18. The “Fyn enrich. R1” value in the assay on Fyn kinase domain (setting [4]) is recorded as 0.3131. In addition, the “Fyn enrich. R3” value with Fyn kinase domain (setting [5]) is 0.443. The “Fyn enrich. R4” value in the assay on Fyn kinase domain (setting [6]) is recorded as 0.884. Moreover, the “Fyn difference (mean log2 variant - mean log2 reference)” value in the assay with Fyn kinase domain (setting [7]) is on record as 0.1477. The “Fyn hit?” value with Fyn kinase domain (setting [8]) is recorded as “FALSE”. In the assay with Hck kinase domain (mean of log2(variant) / mean of log2(reference), R1-R4), the “Hck mean of log2(enrichment)” value amounted to 0.5234. For the same substance, the “Hck enrich. R1” value with Hck kinase domain (setting [4]) amounted to 0.3364. In the assay with Hck kinase domain (setting [5]), the “Hck enrich. R3” value is 0.4885. In addition, in the assay with Hck kinase domain (setting [6]), the “Hck enrich. R4” value amounted to 0.9262. Besides, the “Hck difference (variant - reference)” value in the assay with Hck kinase domain (setting [7]) was determined as 0.1099. The “Hck hit?” value in the assay with Hck kinase domain (setting [8]) was “FALSE”. Besides, on c-Abl kinase domain (setting [3]), the “c-Abl mean of log2(enrichment)” value was -0.8983. At c-Abl kinase domain (setting [4]), the “c-Abl enrich. R1” value stood at 0.3489. For the same substance, the “c-Abl enrich. R3” value on c-Abl kinase domain (setting [5]) is listed as 0.6113. Besides, the “c-Abl enrich. R4” value at c-Abl kinase domain (setting [6]) was determined as 0.4438. In addition, the “c-Abl hit?” value at c-Abl kinase domain (setting [8]) is reported as “FALSE”. In addition, the “Jak2 mean of log2(enrichment)” value in the assay on Jak2 (mean of log2 of enrichment over R1-R3) is -1.127. Also, in the assay on Jak2 (setting [5]), the “Jak2 enrich. R3” value was determined as 0.7448. Moreover, the “Jak2 difference (mean log2 variant - mean log2 reference)” value in the assay on Jak2 (setting [7]) is 0.1075. Further, the “Jak2 hit?” value with Jak2 (setting [8]) is “FALSE”. Further, the “AncSZ mean of log2(enrichment)” value in the assay with AncSZ kinase domain (mean of log2 of enrichment over R1-R5) is on record as -0.8229. Moreover, in the assay with AncSZ kinase domain (setting [4]), the “AncSZ enrich. R1” value was determined as 0.4421. The “AncSZ enrich. R3” value in the assay on AncSZ kinase domain (setting [5]) was determined as 0.7733. Besides, the “AncSZ enrich. R4” value in the assay on AncSZ kinase domain (setting [6]) was determined as 0.7058. In addition, the “AncSZ enrich. R5” value with AncSZ kinase domain (pTyr-Var library, enrichment score, replicate 5) turned out to be 0.7616. The “AncSZ difference (mean log2 variant - mean log2 reference)” value in the assay with AncSZ kinase domain (setting [7]) is -0.03377. For the same substance, the “AncSZ hit?” value in the assay on AncSZ kinase domain (setting [8]) is recorded as “FALSE”. In the assay with Fer kinase domain (setting [3]), the “Fer mean of log2(enrichment)” value is -1.585. Moreover, the “Fer enrich. R1” value with Fer kinase domain (setting [4]) is 0.273. Also, in the assay on Fer kinase domain (setting [5]), the “Fer enrich. R3” value is given as 0.5188. The “Fer enrich. R4” value in the assay on Fer kinase domain (setting [6]) is recorded as 0.4406. Also, in the assay on Fer kinase domain (setting [7]), the “Fer difference (mean log2 variant - mean log2 reference)” value was -0.1949. Further, the “Fer hit?” value with Fer kinase domain (setting [8]) is given as “FALSE”. Further, the “Fes mean of log2(enrichment)” value in the assay with Fes (mean of log2 of enrichment over R1-R6) is on record as -0.768. Moreover, the “Fes difference (mean log2 variant - mean log2 reference)” value in the assay on Fes (setting [7]) was found to be 0.4232. The difference is -0.1712 with FGFR1 kinase domain (setting [9]); -0.0947 in the assay with FGFR3 kinase domain (setting [9]); 0.7368 with EPHB1 kinase domain (setting [9]); -0.2462 with EPHB2 kinase domain (setting [9]); 0.1021 in the assay on MERTK kinase domain (setting [9]); -0.07136 at c-Src SH2 domain (setting [9]). Also, the difference with SHP2 C-SH2 domain (SHP2-C SH2, mean of log2(variant) minus mean of log2(reference)) is reported as -0.6126; in the assay on Grb2 SH2 domain (Grb2 SH2, mean of log2(variant) minus mean of log2(reference)), -0.06902. Further, the “mean of log2(variant)” value in the assay on FGFR1 kinase domain (setting [10]) is on record as -1.608; in the assay on FGFR3 kinase domain (setting [10]) it was -1.326; with EPHB1 kinase domain (setting [11]), -1.347; in the assay with EPHB2 kinase domain (setting [11]) it was -1.376; in the assay with MERTK kinase domain (setting [11]), -1.214; on c-Src SH2 domain (mean of log2 enrichment of variant peptide, R1-R3), -1.19. For the same substance, the “mean of log2(variant)” value in the assay on SHP2 C-SH2 domain (SHP2-C SH2, mean of log2 enrichment of variant, R1-R3) is -1.425; in the assay with Grb2 SH2 domain (Grb2 SH2, mean of log2 enrichment of variant, R1-R3), -0.6418. The var. mean with FGFR1 kinase domain (pTyr-Var library, variant peptide enrichment, mean of n = 5) was 0.3444. Besides, the “hit?” value with SHP2 C-SH2 domain (SHP2-C SH2, variant versus reference significant hit call) is “FALSE”; in the assay on Grb2 SH2 domain (Grb2 SH2, variant versus reference significant hit call), “FALSE”.

The Km is the concentration of substrate that gives half-maximal velocity. For “Ac-GAEEEIYGEFEAKKKG-NH2 [SrcTide (1995), previously reported c-Src consensus substrate (Songyang et al., 1995)]”, on c-Src kinase domain [2], the Michaelis constant (Km) was found to be 64 ± 10 µM and the kcat is listed as 3.1±0.2 s^–1.
